Assay results published in publication PMC10584170, “Machine learning-based phenotypic imaging to characterise the targetable biology of Plasmodium falciparum male gametocytes for the development of transmission-blocking antimalarials” (PLOS Pathogens, 2023).
Read-outs that look alike come from different tables or passages of the source.

Experiments:
[1] = tested on: P. falciparum male gametocytes; assay: P. falciparum Dual Gamete Formation Assay (PfDGFA), male readout (exflagellation); type: cell-based, Plasmodium falciparum NF54
Protocol: (§1) P. falciparum NF54 (originally isolated from an imported malaria case in the Netherlands in the 1980s; BEI Resources, cat. No. MRA-1000) strain asexual parasites were maintained between 0.3–5% parasitaemia by regular passage in complete culture medium (RPMI supplemented with 25 mM HEPES, 50 μg ml^−1 hypoxanthine, 4.8 g l^−1 NaHCO3, 2mM L-glutamine, 5% pooled type AB serum, 0.5% Albumax II (Gibco)) at 4% haematocrit in washed whole blood (National Blood and Transfusion Service or Centro de Transfusiones de la Comunidad de Madrid CTCM) under a 1% O2/3% CO2/96% N2 environment. Gametocytes were induced by seeding culture flasks at 2% parasitaemia/4% haematocrit and subjecting them to daily medium changes for 14 days whilst maintaining a temperature of 37°C at all times. On Day 14, the maturity of gametocytes was assessed by quantifying male gametogenesis (exflagellation). A 20 μl sample of gametocyte culture was mixed with equal volume of ookinete medium (complete culture medium supplemented with 0.1 μM xanthurenic acid) at room temperature and transferred to a haemocytometer. After 20 min at room temperature, exflagellation was accurately quantified as described in Delves et al. 2016 [17].
(§2) The Pf DGFA was performed as described in Delves et al. 2016 [17]. […] Plates were then incubated for 24 h at 37°C in a humidified box under a 1% O2/3% CO2/96% N2 gas mix. Gametogenesis was triggered by addition of 10 μl per well of ookinete medium + 0.27 μg ml^-1 Cy3-labelled anti-Pfs25 antibody. Plates were incubated on a metal block at 4°C for 4 min to ensure even cooling, then 28°C for a further 4 min. Exflagellation was recorded by capturing 10 frames over 1 s under brightfield illumination using a x4 objective with a 1.5x zoom (effectively x6) attached to an automated Nikon Ti fluorescence microscope. After recording exflagellation, plates were incubated for a further 24 h in the dark at 28°C to ensure maximal expression of Pfs25 by female gametes. The plates were then returned to the microscope and female gametes imaged at x6 using fluorescence microscopy.
(§3) Exflagellation centres and female gametes were quantified using custom image analysis pipelines developed within ICY Bioimage Analysis (https://icy.bioimageanalysis.org/).

[2] = tested on: P. falciparum female gametocytes; assay: P. falciparum Dual Gamete Formation Assay (PfDGFA), female readout (Pfs25-positive female gametes); type: cell-based, Plasmodium falciparum NF54
Protocol: as §1, §2, §3

[3] = PfDGFA at 2µM, 24h preincubation with gametocytes prior to induction of gametogenesis, replicate R1
[4] = PfDGFA at 2µM, 24h preincubation with gametocytes prior to induction of gametogenesis, replicate R4
[5] = PfDGFA at 2µM, 24h preincubation, average of replicates
[6] = PfDGFA at 2µM, 24h preincubation with gametocytes prior to induction of gametogenesis, replicate R3
[7] = 2µM, 24h preincubation, number of replicates with >50% inhibition in the male readout
[8] = 2µM, 24h preincubation, number of replicates with >50% inhibition in the female readout
[9] = 2µM, 24h preincubation with gametocytes prior to induction of gametogenesis, average of replicates
[10] = 2µM, 24h preincubation with gametocytes prior to induction of gametogenesis, replicate R1
[11] = 2µM, 24h preincubation with gametocytes prior to induction of gametogenesis, replicate R3
[12] = 2µM, 24h preincubation with gametocytes prior to induction of gametogenesis, replicate R4

Row | Structure (SMILES) | % inhibition male (individual replicates) R1 [1, 3] [%] | % inhibition male (individual replicates) R4 [1, 4] [%] | Average inhibition male (%) [1, 5] [%] | % inhibition female (individual replicates) R1 [2, 3] [%] | % inhibition female (individual replicates) R3 [2, 6] [%] | % inhibition female (individual replicates) R4 [2, 4] [%] | Average inhibition female (%) [2, 5] [%] | HitlevelM [1, 7] | HitlevelF [2, 8] | % inhibition male (individual replicates) R3 [1, 6] [%] | Average inhibition male (%) [1, 9] [%] | % inhibition male (individual replicates) R1 [1, 10] [%] | % inhibition male (individual replicates) R3 [1, 11] [%] | % inhibition male (individual replicates) R4 [1, 12] [%] | Average inhibition female (%) [2, 9] [%] | % inhibition female (individual replicates) R1 [2, 10] [%] | % inhibition female (individual replicates) R3 [2, 11] [%] | % inhibition female (individual replicates) R4 [2, 12] [%] | further results
1 | OC1CCN(c2cc(-c3ccccn3)nc(-c3ccccn3)n2)CC1 [TCMDC-123786] | -14.8 | -28.8 | -7.4 | -1.4 | -6.8 | 3.7 | 0.215 |  |  |  |  |  |  |  |  |  |  |  | 
2 | Cc1cc(C(=O)OCC(=O)Nc2c(C)n(C)n(-c3ccccc3)c2=O)c(C)n1-c1ccc(F)cc1 [TCMDC-123794] |  |  |  |  |  |  |  | 3 | 2 |  |  |  |  |  |  |  |  |  | Selectivity Ratio M ([1]; HepG2 Tox50 versus male IC50): 52.65; inhibition at 2 µM ([1]; Plasmodium falciparum, 2µM, 24h preincubation with gametocytes prior to induction of gametogenesis, average of replicates, read-out: Average inhibition male (%)): 57.2%; inhibition at 2 µM ([1]; Plasmodium falciparum, 2µM, 24h preincubation with gametocytes prior to induction of gametogenesis, replicate R1, read-out: % inhibition male (individual replicates) R1): 63.3%; inhibition at 2 µM ([1]; Plasmodium falciparum, 2µM, 24h preincubation with gametocytes prior to induction of gametogenesis, replicate R2, read-out: % inhibition male (individual replicates) R2): 40.1%; inhibition at 2 µM ([1]; Plasmodium falciparum, 2µM, 24h preincubation with gametocytes prior to induction of gametogenesis, replicate R3, read-out: % inhibition male (individual replicates) R3): 55.8%; inhibition at 2 µM ([1]; Plasmodium falciparum, 2µM, 24h preincubation with gametocytes prior to induction of gametogenesis, replicate R4, read-out: % inhibition male (individual replicates) R4): 69.6%; IC50 ([1]; Plasmodium falciparum, PfDGFA, 24 h incubation with gametocytes before induction, exflagellation readout, read-out: Male IC50): 1900 nM; Selectivity ratio F ([2]; HepG2 Tox50 versus female IC50): 69.69; inhibition at 2 µM ([2]; Plasmodium falciparum, 2µM, 24h preincubation with gametocytes prior to induction of gametogenesis, average of replicates, read-out: Average inhibition female (%)): 48.8%; inhibition at 2 µM ([2]; Plasmodium falciparum, 2µM, 24h preincubation with gametocytes prior to induction of gametogenesis, replicate R1, read-out: % inhibition female (individual replicates) R1): 29.7%; inhibition at 2 µM ([2]; Plasmodium falciparum, 2µM, 24h preincubation with gametocytes prior to induction of gametogenesis, replicate R2, read-out: % inhibition female (individual replicates) R2): 52.6%; inhibition at 2 µM ([2]; Plasmodium falciparum, 2µM, 24h preincubation with gametocytes prior to induction of gametogenesis, replicate R3, read-out: % inhibition female (individual replicates) R3): 40.8%; inhibition at 2 µM ([2]; Plasmodium falciparum, 2µM, 24h preincubation with gametocytes prior to induction of gametogenesis, replicate R4, read-out: % inhibition female (individual replicates) R4): 72.3%; IC50 ([2]; Plasmodium falciparum, PfDGFA, 24 h incubation with gametocytes before induction, female gamete readout, read-out: Female IC50): 1430 nM
3 | N#CCSc1nnc(-c2ccccc2)c2ccccc12 [TCMDC-123867] | -3.0 | -3.8 | 1.3 | 9.7 | -27.1 | 6.9 | -4.3 |  |  | 10.5 |  |  |  |  |  |  |  |  | 
4 | CC1(C)N=C(N)N=C(N)N1c1ccc(Br)cc1.Cl [TCMDC-123959] |  |  |  |  |  |  |  | 0 | 0 |  | -8.5 | 15.3 | 4.6 | -63.1 | 18.2 | 15.6 | 12.6 | 26.1 | 
5 | CC1(C)N=C(N)N=C(N)N1c1cccc(Cl)c1.Cl [TCMDC-123960] | 4.7 | -9.8 | 3.0 | 5.3 | -21.5 | 5.4 | -0.8 |  |  | -1.4 |  |  |  |  |  |  |  |  | 
6 | Br.C[C@@H](COc1ccc(-c2ccccc2)cc1)CON1C(N)=NC(N)=NC1(C)C [TCMDC-124029] |  |  |  |  |  |  |  |  |  |  | 12.1 | 13.7 | -5.2 | 7.3 | 5.2 | -6.6 | 32.8 | -1.3 | HitlevelM ([1]; 2µM, 24h preincubation, hits selected on >50% inhibition in the male readout across replicates): 0; Activity ([1]; PfDGFA at 2µM, 24h preincubation, hit = >50% inhibition in male or female readout in at least 3 replicates, 0 = no class assigned): 0; HitlevelF ([2]; 2µM, 24h preincubation, hits selected on >50% inhibition in the female readout across replicates): 0
